Assays:
[1] = test system: E. coli-based CFPS reactions producing GFP; test: CFPS Gln sensor assay, aqueous samples (GFP reporter); assay type: biochemical; details: 70 mM MSO, Gln omitted as reagent, 1 hr, n=2, read-out: EC50 value (Hill equation fit of GFP response)
Protocol: Reactions omitted Gln as a reagent but included 70 mM MSO. Aqueous samples of known Gln concentrations were added to the CFPS reaction. On the graph, the x-axis represents the final concentration of Gln in the CFPS reaction (ranging from 0 to 2400 μM). Each data point represents a CFPS reaction after 1 hr with n=2 at each Gln concentration. […] The inset plots linear regression of the data. The solid blue line represents the fit, solid red bands represent the 95% confidence of fit, and dashed black bands represent the 95% confidence range for a single-point prediction.
Example 1: E. coli cell extract containing bacteriophage T7 RNA polymerase was prepared as previously described. Briefly, 5 mL overnight culture of BL21 Star™ (DE3) was added to 100 mL 2xYT. When OD600 reached ˜2.0, culture was transferred to 900 mL 2xYT. 1 L cultures were induced with 1 mM IPTG at OD600 0.4-0.6 and harvested at OD600 ˜2.5. All bacterial cultures were incubated at 37° C. and 280 RPM. Cells were homogenized with three passes at 21000 psi using the EmulsiflexB15 French press homogenizer (Avestin, Ottawa, Calif.) and centrifuged at 12000 RCF for 10 min. Clarified lysate was then incubated at 37° C. and 280 RPM for 30 min. Cell extract was dialyzed using 14 kDa MW cut-off cellulose membrane tubing (MilliporeSigma, Billerica, Mass.) for 4 hr at 4° C. immediately following incubation at 37° C. […]

[2] = test system: E. coli-based CFPS reactions producing GFP; test: CFPS Gln sensor assay in the presence of human serum; assay type: biochemical; details: 70 mM MSO, RNAse inhibitor, 14% (v/v) human serum, 1 hr, n=2; read-out: EC50 value (Hill equation fit of GFP response)
Protocol: Reactions omitted Gln as a reagent but contained 70 mM MSO, RNAse inhibitor, and 14% (v/v) human serum with increasing Gln concentrations. The x-axis represents the corresponding Gln concentration in the CFPS reaction. Each data point represents a CFPS reaction after 1 hr with n=2 at each CFPS Gln concentration. […] Solid blue line represents the fit, solid red bands represent the 95% confidence of fit, and dashed black bands represent the 95% confidence range for a single-point prediction.
Example 1: E. coli cell extract containing bacteriophage T7 RNA polymerase was prepared as previously described. Briefly, 5 mL overnight culture of BL21 Star™ (DE3) was added to 100 mL 2xYT. When OD600 reached ˜2.0, culture was transferred to 900 mL 2xYT. 1 L cultures were induced with 1 mM IPTG at OD600 0.4-0.6 and harvested at OD600 ˜2.5. All bacterial cultures were incubated at 37° C. and 280 RPM. Cells were homogenized with three passes at 21000 psi using the EmulsiflexB15 French press homogenizer (Avestin, Ottawa, Calif.) and centrifuged at 12000 RCF for 10 min. Clarified lysate was then incubated at 37° C. and 280 RPM for 30 min. Cell extract was dialyzed using 14 kDa MW cut-off cellulose membrane tubing (MilliporeSigma, Billerica, Mass.) for 4 hr at 4° C. immediately following incubation at 37° C.
(§1) Gln was omitted from Gln-sensing reactions. […] Results were obtained after 60 minutes.

[3] = molecular target: T1, E. coli ASNase (Escherichia coli, UniProt P00805); test: CFPS reactions producing GFP in the presence of E. coli ASNase and ASP; assay type: biochemical; details: 1.54 IU/mL ASNase + 6.5 mM ASP vs 1.54 IU/mL ASNase
T1 construct: purchased
T1 sequence (P00805 23-348): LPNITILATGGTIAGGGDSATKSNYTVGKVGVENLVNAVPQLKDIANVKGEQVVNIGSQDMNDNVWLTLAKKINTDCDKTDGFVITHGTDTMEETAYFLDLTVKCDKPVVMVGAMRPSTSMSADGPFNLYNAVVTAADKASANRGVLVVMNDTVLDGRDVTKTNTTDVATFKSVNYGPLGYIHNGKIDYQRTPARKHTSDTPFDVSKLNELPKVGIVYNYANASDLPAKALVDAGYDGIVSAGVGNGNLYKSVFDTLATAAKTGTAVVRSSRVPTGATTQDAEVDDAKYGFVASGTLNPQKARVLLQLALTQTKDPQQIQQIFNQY
Protocol: In FIG. 8, CFPS reactions producing GFP in the presence of E. coli ASNase and ASP. Reported conditions include 0 IU/mL ASNase (no ASNase added), 1.54 IU/mL ASNase, and 1.54 IU/mL ASNase+6.5 mM ASP. […] No plasmid (NP) control tests for the impact of CFPS machinery and possible reaction products if added to a CFPS reaction producing GFP. As such, for the NP control 5 μL of a cellfree reaction product (where no plasmid was added such that no protein expression was templated) was added to a second CFPS reaction producing GFP. […] Error bars represent one standard deviation for n=2 CFPS reactions.

[4] = molecular target: T2, phosphoenolpyruvate carboxylase (Escherichia coli, UniProt P00864); test: CFPS yield with raised initial Asp; assay type: biochemical, E. coli; details: 12 mM Asp compared with conventional 2 mM Asp, one-hour reaction
T2 construct: many enzymes which likely retain activity in the lysate-based CFPS reactions consume precious ATP superfluously; endogenous in cells; host or cells: E. coli BL21 Star (DE3) cell extract (lysate)
T2 sequence (P00864 whole entry): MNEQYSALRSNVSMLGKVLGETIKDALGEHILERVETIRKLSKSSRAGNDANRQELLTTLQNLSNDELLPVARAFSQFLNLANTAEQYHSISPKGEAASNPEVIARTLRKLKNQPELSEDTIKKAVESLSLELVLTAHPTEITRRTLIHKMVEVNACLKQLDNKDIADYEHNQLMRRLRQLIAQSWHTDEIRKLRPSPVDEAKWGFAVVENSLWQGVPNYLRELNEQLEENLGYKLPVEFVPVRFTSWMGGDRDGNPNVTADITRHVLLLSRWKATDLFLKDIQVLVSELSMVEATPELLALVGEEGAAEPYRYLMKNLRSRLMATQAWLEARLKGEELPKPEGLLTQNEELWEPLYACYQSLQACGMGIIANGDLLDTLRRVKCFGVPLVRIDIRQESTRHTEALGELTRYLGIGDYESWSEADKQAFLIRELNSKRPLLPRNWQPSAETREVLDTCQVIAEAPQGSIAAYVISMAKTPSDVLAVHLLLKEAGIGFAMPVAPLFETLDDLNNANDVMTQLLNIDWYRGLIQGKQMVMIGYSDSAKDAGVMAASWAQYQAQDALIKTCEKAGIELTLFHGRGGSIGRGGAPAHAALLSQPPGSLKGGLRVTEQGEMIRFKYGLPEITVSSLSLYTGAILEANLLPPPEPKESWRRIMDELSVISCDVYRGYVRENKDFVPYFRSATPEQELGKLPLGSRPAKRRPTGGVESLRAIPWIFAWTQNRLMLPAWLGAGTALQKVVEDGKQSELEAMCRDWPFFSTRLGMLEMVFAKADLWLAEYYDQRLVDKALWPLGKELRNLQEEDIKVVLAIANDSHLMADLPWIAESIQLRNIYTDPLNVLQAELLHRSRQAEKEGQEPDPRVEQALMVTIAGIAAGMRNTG
Source text: The metabolic engineering approach presented in this work may also be useful for modulating protein expression yield or other desired products from cell-free reactions. Indeed, many enzymes which likely retain activity in the lysate-based CFPS reactions consume precious ATP superfluously. For example, GLNS, which is inhibited in this work, consumes ATP in the process of synthesizing Gln. […] Indeed, during the process of completing the work described herein, we learned that phosphoenolpyruvate carboxylase circumvents the production of ATP from PEP, and that its inhibition might improve CFPS performance. Accordingly, we identified Asp as an inhibitor of this enzyme and observed that CFPS initiated with 12 mM Asp compared with the conventional 2 mM Asp increased CFPS yield by 38% over a one-hour reaction (FIG. 8).
as §1

[5] = molecular target: glutamine synthetase (GLNS) (Escherichia coli, UniProt P0A9C5)
Sequence of glutamine synthetase (GLNS) (P0A9C5 2-469 limits assumed): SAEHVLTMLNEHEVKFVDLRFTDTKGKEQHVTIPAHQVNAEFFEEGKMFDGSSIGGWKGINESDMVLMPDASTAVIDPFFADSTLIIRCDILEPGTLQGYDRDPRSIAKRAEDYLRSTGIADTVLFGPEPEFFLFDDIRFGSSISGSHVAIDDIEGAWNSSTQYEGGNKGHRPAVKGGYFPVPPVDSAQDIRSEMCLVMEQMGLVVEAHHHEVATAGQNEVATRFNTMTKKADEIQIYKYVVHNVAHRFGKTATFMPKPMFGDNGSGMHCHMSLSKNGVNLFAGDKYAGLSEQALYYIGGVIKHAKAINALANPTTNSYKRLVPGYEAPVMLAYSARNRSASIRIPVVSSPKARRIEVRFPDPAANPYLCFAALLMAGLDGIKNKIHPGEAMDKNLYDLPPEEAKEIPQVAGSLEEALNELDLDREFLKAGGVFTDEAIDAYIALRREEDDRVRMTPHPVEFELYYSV
Protocol: Example 2: Cell-free protein synthesis reactions were formulated in 96-well plates with the following specifications: 25% (v/v) cell extract, 12 nM pY71-sfGFP^37, 10-20 mM magnesium glutamate (concentration adjusted for optimal protein yield), 1 mM 1,4-diaminobutane, 1.5 mM spermidine, 40 mM phosphoenolpyruvate, 10 mM ammonium glutamate, 175 mM potassium glutamate, 2.7 mM potassium oxalate, 0.33 mM nicotinamide adenine dinucleotide, 0.27 mM coenzyme A, 1.2 mM ATP, 0.86 mM CTP, 0.86 mM GTP, 0.86 mM UTP, 0.17 mM folinic acid, 6 mM aspartate, 6 mM asparagine, and 2 mM of the 16 remaining proteinogenic amino acids. Gln was omitted from Gln-sensing reactions. For reactions containing human serum (Gemini Bio Products, Sacramento, Calif.), murine RNAse inhibitor (New England BioLabs, Ipswich MA) was added to a final concentration of 0.8 U/μL CFPS. Reactions were incubated at 37° C. in a BioTek SynergyMX plate reader, shaken for 30 seconds, and analyzed for fluorescence every 4-6 minutes at 480/510 nm excitation/emission wavelengths. Results were obtained after 60 minutes. Assay signal strength was calculated as the ratio of GFP RFU at saturating Gln concentrations to the GFP RFU at 0 μM Gln.

NC(=O)CC[C@H](N)C(=O)O [Gln, L-glutamine]
EC50 [1]: 154 µM
EC50 [2]: 100 µM

N[C@@H](CC(=O)O)C(=O)O [Asp, L-aspartate]
effect of ASP supplementation on ASNase activity [3]: inhibitory effect
increase of CFPS yield [4]: 38%

CS(=N)(=O)CC[C@H](N)C(=O)O (stereo partly drawn) [MSO, Methionine sulfoximine]
effect on CFPS expression yield ([5]; concentrations up to 80 mM in the presence of 2 mM Gln): little effect
signal-to-noise ratio of the assay ([5]; increased linearly with increasing MSO concentration up to 70 μM): ~10
